This note sets out measurements from patent US5641779A, “Selective ligands of 5-HT1D -5-HT1B receptors derived from indolepiperazine which are useful medicaments” (Pierre Fabre Medicament, priority 1992, dated 1997).

One assay addresses T1, 5-HT1A (Rattus norvegicus, UniProt P19327).
T1 construct: from tissue; host or cells: rat frontal cortex
T1 sequence (P19327 1-422): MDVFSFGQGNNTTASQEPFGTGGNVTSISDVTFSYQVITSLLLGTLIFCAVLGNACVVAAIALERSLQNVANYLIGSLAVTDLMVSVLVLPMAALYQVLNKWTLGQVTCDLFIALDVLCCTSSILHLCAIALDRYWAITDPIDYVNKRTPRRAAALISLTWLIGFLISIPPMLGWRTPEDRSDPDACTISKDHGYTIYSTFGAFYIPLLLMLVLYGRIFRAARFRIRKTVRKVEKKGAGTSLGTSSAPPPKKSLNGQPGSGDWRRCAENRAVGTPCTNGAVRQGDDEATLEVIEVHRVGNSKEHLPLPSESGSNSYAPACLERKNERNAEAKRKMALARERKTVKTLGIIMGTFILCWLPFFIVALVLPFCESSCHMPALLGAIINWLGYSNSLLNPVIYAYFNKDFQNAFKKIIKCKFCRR
The assay can be described thus: 5-HT1A receptor binding (Peroutka). How it is done:
(§1) The IC50 values of the various products which form part of this invention for the other receptors were measured according to the techniques described in the following references:
(§2) Peroutka S. J. Pharmacological differentiation and characterization of 5-HT1A, 5-HT1B and 5-HT1C binding sites in rat frontal cortex. J. Neurochem., 45, 529-540, 1986.

Another assay has as its target T2, α2-Adrenergic receptor (Rattus norvegicus, UniProt P22909).
T2 construct: in the rat brain; from tissue; host or cells: rat brain
T2 sequence (P22909 1-465): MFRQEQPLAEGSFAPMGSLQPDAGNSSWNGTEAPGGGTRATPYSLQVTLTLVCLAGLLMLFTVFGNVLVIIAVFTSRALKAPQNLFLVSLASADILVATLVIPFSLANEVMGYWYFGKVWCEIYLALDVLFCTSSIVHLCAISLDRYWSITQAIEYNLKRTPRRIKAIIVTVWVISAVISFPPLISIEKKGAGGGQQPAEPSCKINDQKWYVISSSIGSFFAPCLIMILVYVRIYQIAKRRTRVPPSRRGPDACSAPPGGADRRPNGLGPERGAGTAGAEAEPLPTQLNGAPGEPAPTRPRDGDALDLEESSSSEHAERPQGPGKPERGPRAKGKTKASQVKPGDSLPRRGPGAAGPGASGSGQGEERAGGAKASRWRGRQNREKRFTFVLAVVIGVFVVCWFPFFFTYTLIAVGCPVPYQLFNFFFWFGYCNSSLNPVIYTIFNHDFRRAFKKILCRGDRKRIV
The assay can be described thus: α2-Adrenergic receptor binding (Mallard et al.). The method, then: as §1
Mallard N. J., Tyacke R., Hudson A. L. and Nutt D. S. Comparative binding studies of ^3 -idazoxan and ^3 -RX821002 in the rat brain. Brit. J. Pharmacol. 102, 221P, 1991.

A further assay concerns the target T3, D2-Dopaminergic receptor (Canis lupus familiaris, UniProt Q9GJU1).
T3 construct: from tissue
The assay can be described thus: D2-Dopaminergic receptor binding (Nisnik et al.). The method, then:
as §1
Nisnik H. B., Grigoriadis D. E., Pri-Bar I., Buckman O. and Seeman P. Dopamine D2 receptors selectively labeled by a benzamide neuroleptic: ^3 H-YM-09159-2 Naunyn-Schmiedeberg's Arch. Pharmacol. 329, 333-343, 1985.

The target in another assay is T4, 5-HT2 (Rattus norvegicus, UniProt P14842).
T4 construct: from tissue
In words: 5-HT2 receptor binding (Leysen et al.). Conditions: 3H-ketanserine (title of cited method). How it is done: as §1
Leysen J. E., Niemegeers C. J. E., Van Nueten J. M. and Laduron P.M. ^3 H-ketanserine (R 41468), a selective ^3 H ligand for serotonin2 receptor binding sites. Mol. Pharmacol., 21, 301-330, 1982.

The target of another assay is T5, 5-HT1C (Sus scrofa, UniProt K7GSR7).
T5 construct: serotonergic ligands to the porcine choroid plexus; from tissue; host or cells: porcine choroid plexus
T5 sequence (K7GSR7 1-457): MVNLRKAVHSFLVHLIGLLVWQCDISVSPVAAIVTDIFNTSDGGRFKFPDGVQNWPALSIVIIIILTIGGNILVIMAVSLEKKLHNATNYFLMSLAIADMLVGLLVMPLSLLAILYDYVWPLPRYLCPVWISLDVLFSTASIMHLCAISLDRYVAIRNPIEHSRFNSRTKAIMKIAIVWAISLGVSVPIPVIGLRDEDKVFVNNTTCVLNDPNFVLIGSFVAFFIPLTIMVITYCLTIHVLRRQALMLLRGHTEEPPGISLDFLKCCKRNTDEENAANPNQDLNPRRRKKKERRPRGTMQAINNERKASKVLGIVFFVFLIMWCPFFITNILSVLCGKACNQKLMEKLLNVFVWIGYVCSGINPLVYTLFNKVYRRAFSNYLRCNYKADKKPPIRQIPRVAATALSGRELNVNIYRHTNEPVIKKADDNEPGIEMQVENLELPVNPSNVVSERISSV
In words: 5-HT1C receptor binding (Pazos et al.). The arrangement: species or system porcine. The method, then: as §1
Pazos A., Hoyer D. and Palacios J. M. The binding sites of serotonergic ligands to the porcine choroid plexus: characterization of a new type of serotonin recognition site. Eur. J. Pharmacol., 106, 539-546, 1985.

For the next assay, the target named is T6, 5-HT1B (Rattus norvegicus, UniProt P28564).
T6 construct: from tissue; host or cells: rat frontal cortex
The assay can be described thus: 5-HT1B receptor binding (Peroutka). The method, then: as §1, §2

Another assay deals with 5-HT1D. The assay can be described thus: Affinity for 5-HT1D receptors (3H-5-HT binding, sheep caudate nuclei membranes). Conditions: Ratio of the IC50 values for the 5HT1A and 5HT1D receptors. The method, then: This study is carried out according to the technique described by Herrick-Davis and Titeler (J. Neurochem. 50, 1624-1631, 1988).
Preparation of the membranes:
Sheep brains are removed at the local abattoir and transported in ice. The caudate nuclei are removed, weighed and homogenized with a Polytron for 20 sec. (speed 6-7) in 20 volumes of Tris-HCl 50 mM, pH 7.7. The homogenate is centrifuged for 10 min at 48,000 g with an L5 50E centrifuge (Beckman).
The pellet, taken up in 20 volumes of Tris-HCl 50 mM, pH 7.7, is placed in a water bath at 37° C. for 10 min and then recentrifuged for 10 min at 48,000 g. The pellet then obtained is immediately frozen in fractions containing 0.5 g of tissue.
The pellet is defrosted and homogenized with a Dounce in 80 volumes of Tris-HCl, 50 mM pH 7.7 containing 4 mM CaCl2, 10μM of pargyline and 0.1% of ascorbic acid.
Binding is carried out at 25° C. by incubating for 30 min:
0.1 ml of buffer or 10 μM, as final concentration, of sumatriptan, in order to obtain the non-specific binding, or the product which forms part of this invention at various concentrations (between 10^-10 and 10^-6 M).
0.8 ml of membrane suspension
0.1 ml of ^3 H-5-HT (15 to 30 Ci/mM, New England Nuclear France)
The incubation is brought to an end by rapid filtration through GF/B filters and rinsing with 3 times 3 ml of ice-cold buffer, using a harvester manufactured by Brandel which makes it possible to filter 48 samples. The filters are introduced into vials containing 4 ml of emulsifier-safe liquid scintillant (Packard) and the radioactivity measured with a Tri-carb 4640 counter (Packard).
The IC50 (concentration which inhibits the specific affinity by 50%) is determined graphically.

The target in the next assay is α1-Adrenergic receptor. The assay can be described thus: α1-Adrenergic receptor binding (Leslie Morrow and Creese). Conditions: rat brain (title of cited method). How it is done:
as §1
Leslie Morrow A. and Creese I. Characterization of α1-adrenergic receptor subtypes in rat brain: a reevaluation of ^3 H-WB4101 and ^3 H prazosin binding. Mol. Pharmacol. 29, 321-330, 1986.

The mark [1] stands for this setting: porcine choroid plexus (title of cited method), read-out: IC50 5-HT1C.
Setting [2] is: rat frontal cortex (title of cited method), mean, read-out: IC50 5-HT1A mean.
The mark [3] stands for this setting: rat brain (title of cited method), read-out: IC50 α2.
Where [4] appears, read: 3H-YM-09159-2 (title of cited method), read-out: IC50 D2.
Where [5] appears, read: rat frontal cortex (title of cited method), mean, read-out: IC50 5-HT1B mean.

Structures can show the parent of a compound that is named as a salt. Where two headings read alike, the source gives them in different places.

T3 sequence (Q9GJU1 whole entry): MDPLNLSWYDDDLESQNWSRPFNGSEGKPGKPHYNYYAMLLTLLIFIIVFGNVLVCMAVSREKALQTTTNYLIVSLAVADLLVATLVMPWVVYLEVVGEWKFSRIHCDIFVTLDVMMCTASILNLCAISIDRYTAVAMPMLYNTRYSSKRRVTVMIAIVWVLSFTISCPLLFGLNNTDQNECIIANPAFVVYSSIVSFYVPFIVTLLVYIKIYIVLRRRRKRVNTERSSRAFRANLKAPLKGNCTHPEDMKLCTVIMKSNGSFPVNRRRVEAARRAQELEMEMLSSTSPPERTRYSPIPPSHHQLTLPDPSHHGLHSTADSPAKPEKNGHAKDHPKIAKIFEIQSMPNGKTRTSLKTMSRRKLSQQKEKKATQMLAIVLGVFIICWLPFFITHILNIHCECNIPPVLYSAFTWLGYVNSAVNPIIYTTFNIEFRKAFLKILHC
T4 sequence (P14842 whole entry): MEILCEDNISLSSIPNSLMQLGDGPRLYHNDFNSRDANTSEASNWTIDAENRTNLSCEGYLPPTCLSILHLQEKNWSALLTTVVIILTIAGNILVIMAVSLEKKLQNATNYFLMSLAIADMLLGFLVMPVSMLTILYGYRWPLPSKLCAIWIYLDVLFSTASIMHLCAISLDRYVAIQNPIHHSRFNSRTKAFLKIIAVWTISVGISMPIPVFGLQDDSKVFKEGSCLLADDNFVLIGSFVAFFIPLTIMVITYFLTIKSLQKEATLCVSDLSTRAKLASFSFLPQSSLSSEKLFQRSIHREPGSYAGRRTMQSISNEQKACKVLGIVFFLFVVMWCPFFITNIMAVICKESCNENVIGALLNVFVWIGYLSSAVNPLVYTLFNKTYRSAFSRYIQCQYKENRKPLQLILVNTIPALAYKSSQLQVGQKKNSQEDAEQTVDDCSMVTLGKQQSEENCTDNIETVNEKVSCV
T6 sequence (P28564 whole entry): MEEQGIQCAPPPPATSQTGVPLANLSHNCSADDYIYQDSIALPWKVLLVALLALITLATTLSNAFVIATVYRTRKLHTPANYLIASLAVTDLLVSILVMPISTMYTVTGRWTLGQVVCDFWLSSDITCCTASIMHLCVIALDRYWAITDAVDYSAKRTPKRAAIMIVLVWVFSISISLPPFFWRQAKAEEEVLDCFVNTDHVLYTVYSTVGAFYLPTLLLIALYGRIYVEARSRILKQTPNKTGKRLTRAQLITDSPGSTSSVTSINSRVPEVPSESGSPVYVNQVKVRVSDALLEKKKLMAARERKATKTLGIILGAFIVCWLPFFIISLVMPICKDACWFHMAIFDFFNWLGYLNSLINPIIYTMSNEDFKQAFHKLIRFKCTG

Turning to `COc1cccc(N2CCN(C(=O)COc3ccc4[nH]cc(CCN)c4c3)CC2)c1` [Example 6, 4-(m-Methoxyphenyl)-1-(tryptamine-5-O-carboxymethyl) piperazide hydrochloride], the IC50 – broadly, the concentration at which inhibition is half-maximal – at 5-HT1A was 0.0235 µM; at α2-Adrenergic receptor, over 1 µM; at D2-Dopaminergic receptor, over 1 µM; on 5-HT2, over 1 µM; on 5-HT1C (setting [1]), over 1 µM; on 5-HT1B, 0.0011 µM. This compound yielded an IC50 at α1-Adrenergic receptor of over 1 µM. For the same compound, the “Ratio 1A/1D” value with 5-HT1D stood at 8.1.
Consider `COc1cccc(N2CCN(C(=O)COc3ccc4[nH]cc(CCNC(=O)OC(C)(C)C)c4c3)CC2)c1` [Example 6A, 4-(m-Methoxyphenyl)-1-(tert-butoxycarbamate-tryptamine-5-carboxymethyl)piperazide hydrochloride], for which the IC50 on 5-HT1A (setting [2]) was 0.1 µM; at α2-Adrenergic receptor (setting [3]), over 1 µM; on D2-Dopaminergic receptor (setting [4]), over 1 µM; at 5-HT2, over 1 µM; on 5-HT1C (setting [1]), over 1 µM; on 5-HT1B (setting [5]) it was 0.0015 µM. The compound also gave an IC50 on α1-Adrenergic receptor of over 1 µM. Further, the “Ratio 1A/1D” value with 5-HT1D amounted to 6.3.
Take `CN1CCN(C(=O)COc2ccc3[nH]cc(CCN)c3c2)CC1` [Example 7, 4-Methyl-1-(tryptamine-5-O-carboxymethyl)piperazide hydrochloride]: the IC50 on 5-HT1A (setting [2]) was over 1 µM; at α2-Adrenergic receptor (setting [3]), over 1 µM; at D2-Dopaminergic receptor (setting [4]), over 1 µM; at 5-HT2, over 1 µM; at 5-HT1C, over 1 µM; on 5-HT1B (setting [5]), 0.355 µM. Also, on α1-Adrenergic receptor, the IC50 was over 1 µM. In the assay on 5-HT1D, the “Ratio 1A/1D” value is reported as over 1.4.
In the case of `Cc1ccccc1N1CCN(C(=O)C(Oc2ccc3[nH]cc(CCN)c3c2)c2ccccc2)CC1` (stereo not drawn) [Example 9, 4-O-Tolyl-1-[tryptamine-5-O-(α-phenylcarboxymethyl)]piperazide hydrochloride], the IC50 at 5-HT1A (setting [2]) was 0.325 µM; on α2-Adrenergic receptor (setting [3]), over 1 µM; at D2-Dopaminergic receptor (setting [4]), over 1 µM; at 5-HT2 it was 0.55 µM; at 5-HT1C (setting [1]), 0.6 µM; on 5-HT1B (setting [5]) it was 0.085 µM. Also, on α1-Adrenergic receptor, the IC50 is over 1 µM. The “Ratio 1A/1D” value with 5-HT1D is reported as 1.7.
Take `NCCc1c[nH]c2ccc(OC(C(=O)N3CCN(c4cccc5ccccc45)CC3)c3ccccc3)cc12` (stereo not drawn) [Example 10, 4-Naphthyl-1-[tryptamine-5-O-(α-phenylcarboxymethyl)]piperazide hydrochloride]: the IC50 was 0.465 µM on 5-HT1A (setting [2]); over 1 µM at α2-Adrenergic receptor (setting [3]); over 1 µM at D2-Dopaminergic receptor (setting [4]); over 1 µM at 5-HT2; over 1 µM on 5-HT1C (setting [1]); 0.335 µM on 5-HT1B (setting [5]). On α1-Adrenergic receptor, this compound gave an IC50 of over 1 µM. In addition, the “Ratio 1A/1D” value in the assay on 5-HT1D is reported as 0.7.
